Laboratory results reported in patent US5807535A, “Metal complexes of hydroxyaryl containing aminocarboxylic acid chelating agents” (Australian Nuclear Science & Technology Organisation, priority 1992, dated 1998).
Like-named read-outs stand apart in the source and are kept apart here.

Tests used:
[1] = Biodistribution of 99mTc complexes in rats; type: in vivo, Australian Albino Wistar Rats; conditions: rat, rats; for tissue uptake at 0.5 min: 30 sec; for tissue uptake at 0.05 h: 3 min
Summary of the method: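 Chelators were dissolved in basic saline, brought to about pH 6 with HCl, and reduced with excess stannous chloride before one equivalent volume of sodium 99mTcO4 (10-50 mCi/ml) was added, giving roughly 1 mg/ml chelator. Labelling efficacy was checked by ITLC-SG. Complexes were diluted in saline to 15 μCi/100 μl for rat biodistribution, with tissue uptake expressed as %ID/g.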

[2] = Biodistribution of 99mTc complexes in mice; type: in vivo, Balb/c mice
Summary of the method: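 Chelator (approx. 1 mg/ml final) labelled with 99mTc via excess stannous chloride at pH approx. 6, labelling efficacy checked by ITLC-SG. Complexes diluted to 15 μCi/100 μl in saline before dosing to mice.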

[3] = blood, read-out: biodistribution blood
[4] = bone, read-out: biodistribution bone
[5] = brain, read-out: biodistribution brain
[6] = eyes, read-out: biodistribution eyes
[7] = heart, read-out: biodistribution heart
[8] = kidneys, read-out: biodistribution kidneys
[9] = liver, read-out: biodistribution liver
[10] = lungs, read-out: biodistribution lungs
[11] = muscle, read-out: biodistribution muscle
[12] = pancreas, read-out: biodistribution pancreas
[13] = skin, read-out: biodistribution skin
[14] = spleen, read-out: biodistribution spleen
[15] = stomach, read-out: biodistribution stomach
[16] = tail, read-out: biodistribution tail
[17] = thymus, read-out: biodistribution thymus
[18] = thyroid, read-out: biodistribution thyroid
[19] = total git, read-out: biodistribution tot GIT

tissue uptake at 0.5 min [1, 3]: 4.92 %ID/g | tissue uptake at 1 min [1, 3]: 4.22 %ID/g | tissue uptake at 0.05 h [1, 3]: 3.26 %ID/g | tissue uptake at 5 min [1, 3]: 3.13 %ID/g | tissue uptake at 10 min [1, 3]: 2.59 %ID/g | tissue uptake at 0.5 min [1, 4]: 0.37 %ID/g | tissue uptake at 1 min [1, 4]: 0.45 %ID/g | tissue uptake at 0.05 h [1, 4]: 0.42 %ID/g | tissue uptake at 5 min [1, 4]: 0.37 %ID/g | tissue uptake at 10 min [1, 4]: 0.36 %ID/g | tissue uptake at 0.5 min [1, 5]: 0.2 %ID/g | tissue uptake at 1 min [1, 5]: 0.22 %ID/g | tissue uptake at 0.05 h [1, 5]: 0.16 %ID/g | tissue uptake at 5 min [1, 5]: 0.17 %ID/g | tissue uptake at 10 min [1, 5]: 0.14 %ID/g | tissue uptake at 0.5 min [1, 6]: 0.17 %ID/g | tissue uptake at 1 min [1, 6]: 0.23 %ID/g | tissue uptake at 0.05 h [1, 6]: 0.19 %ID/g | tissue uptake at 5 min [1, 6]: 0.18 %ID/g | tissue uptake at 10 min [1, 6]: 0.18 %ID/g | tissue uptake at 0.5 min [1, 7]: 1.81 %ID/g | tissue uptake at 1 min [1, 7]: 1.62 %ID/g | tissue uptake at 0.05 h [1, 7]: 1.24 %ID/g | tissue uptake at 5 min [1, 7]: 1.15 %ID/g | tissue uptake at 10 min [1, 7]: 1.06 %ID/g | tissue uptake at 0.5 min [1, 8]: 4.35 %ID/g | tissue uptake at 1 min [1, 8]: 5.7 %ID/g | tissue uptake at 0.05 h [1, 8]: 4.7 %ID/g | tissue uptake at 5 min [1, 8]: 6.04 %ID/g | tissue uptake at 10 min [1, 8]: 3.61 %ID/g | tissue uptake at 0.5 min [1, 9]: 1.11 %ID/g | tissue uptake at 1 min [1, 9]: 0.97 %ID/g | tissue uptake at 0.05 h [1, 9]: 0.83 %ID/g | tissue uptake at 5 min [1, 9]: 0.79 %ID/g | tissue uptake at 10 min [1, 9]: 0.69 %ID/g | tissue uptake at 0.5 min [1, 10]: 1.66 %ID/g | tissue uptake at 1 min [1, 10]: 1.69 %ID/g | tissue uptake at 0.05 h [1, 10]: 1.31 %ID/g | tissue uptake at 5 min [1, 10]: 1.25 %ID/g | tissue uptake at 10 min [1, 10]: 1.17 %ID/g | tissue uptake at 0.5 min [1, 11]: 0.25 %ID/g | tissue uptake at 1 min [1, 11]: 0.3 %ID/g | tissue uptake at 0.05 h [1, 11]: 0.27 %ID/g | tissue uptake at 5 min [1, 11]: 0.25 %ID/g | tissue uptake at 10 min [1, 11]: 0.23 %ID/g | tissue uptake at 0.5 min [1, 12]: 0.8 %ID/g | tissue uptake at 1 min [1, 12]: 0.73 %ID/g | tissue uptake at 0.05 h [1, 12]: 0.55 %ID/g | tissue uptake at 5 min [1, 12]: 0.56 %ID/g | tissue uptake at 10 min [1, 12]: 0.43 %ID/g | tissue uptake at 0.5 min [1, 13]: 0.31 %ID/g | tissue uptake at 1 min [1, 13]: 0.38 %ID/g | tissue uptake at 0.05 h [1, 13]: 0.43 %ID/g | tissue uptake at 5 min [1, 13]: 0.41 %ID/g | tissue uptake at 10 min [1, 13]: 0.46 %ID/g | tissue uptake at 0.5 min [1, 14]: 0.83 %ID/g | tissue uptake at 1 min [1, 14]: 0.98 %ID/g | tissue uptake at 0.05 h [1, 14]: 0.83 %ID/g | tissue uptake at 5 min [1, 14]: 0.83 %ID/g | tissue uptake at 10 min [1, 14]: 0.72 %ID/g | tissue uptake at 0.5 min [1, 15]: 0.47 %ID/g | tissue uptake at 1 min [1, 15]: 0.42 %ID/g | tissue uptake at 0.05 h [1, 15]: 0.36 %ID/g | tissue uptake at 5 min [1, 15]: 0.37 %ID/g | tissue uptake at 10 min [1, 15]: 0.24 %ID/g | tissue uptake at 0.5 min [1, 16]: 0.22 %ID/g | tissue uptake at 1 min [1, 16]: 0.14 %ID/g | tissue uptake at 0.05 h [1, 16]: 0.17 %ID/g | tissue uptake at 5 min [1, 16]: 0.15 %ID/g | tissue uptake at 10 min [1, 16]: 0.19 %ID/g | tissue uptake at 0.5 min [1, 17]: 0.63 %ID/g | tissue uptake at 1 min [1, 17]: 0.56 %ID/g | tissue uptake at 0.05 h [1, 17]: 0.45 %ID/g | tissue uptake at 5 min [1, 17]: 0.54 %ID/g | tissue uptake at 10 min [1, 17]: 0.39 %ID/g | tissue uptake at 0.5 min [1, 18]: 1.85 %ID/g | tissue uptake at 1 min [1, 18]: 2.43 %ID/g | tissue uptake at 0.05 h [1, 18]: 1.59 %ID/g | tissue uptake at 5 min [1, 18]: 1.73 %ID/g | tissue uptake at 10 min [1, 18]: 1.71 %ID/g | tissue uptake at 0.5 min [1, 19]: 0.35 %ID/g | tissue uptake at 1 min [1, 19]: 0.34 %ID/g | tissue uptake at 0.05 h [1, 19]: 0.31 %ID/g | tissue uptake at 5 min [1, 19]: 0.29 %ID/g | tissue uptake at 10 min [1, 19]: 0.27 %ID/g | biodistribution bone ([2]; 1 min): 6.02 % Injected dose | biodistribution kidney ([2]; 1 min): 9.08 % Injected dose | biodistribution liver ([2]; 1 min): 5.72 % Injected dose | biodistribution muscle ([2]; 1 min): 23.78 % Injected dose | biodistribution skin ([2]; 1 min): 18.09 % Injected dose | biodistribution spleen ([2]; 1 min): 0.14 % Injected dose | biodistribution urine ([2]; 1 min): 0 % Injected dose | biodistribution kidney ([2]; 3 min): 8.71 % Injected dose | biodistribution liver ([2]; 3 min): 5.04 % Injected dose | biodistribution muscle ([2]; 3 min): 15.39 % Injected dose | biodistribution skin ([2]; 3 min): 19.66 % Injected dose | biodistribution spleen ([2]; 3 min): 0.16 % Injected dose | biodistribution urine ([2]; 3 min): 2.97 % Injected dose | biodistribution kidney ([2]; 5 min): 6.71 % Injected dose | biodistribution liver ([2]; 5 min): 4.34 % Injected dose | biodistribution muscle ([2]; 5 min): 11.74 % Injected dose | biodistribution skin ([2]; 5 min): 19.83 % Injected dose | biodistribution spleen ([2]; 5 min): 0.12 % Injected dose | biodistribution urine ([2]; 5 min): 6.52 % Injected dose | biodistribution kidney ([2]; 10 min): 5.97 % Injected dose | biodistribution liver ([2]; 10 min): 5.34 % Injected dose | biodistribution muscle ([2]; 10 min): 9.67 % Injected dose | biodistribution skin ([2]; 10 min): 23.93 % Injected dose | biodistribution spleen ([2]; 10 min): 0.11 % Injected dose | biodistribution urine ([2]; 10 min): 10.66 % Injected dose | biodistribution kidney ([2]; 30 min): 3.75 % Injected dose | biodistribution liver ([2]; 30 min): 2.86 % Injected dose | biodistribution muscle ([2]; 30 min): 23.84 % Injected dose | biodistribution skin ([2]; 30 min): 17.37 % Injected dose | biodistribution spleen ([2]; 30 min): 0.06 % Injected dose | biodistribution urine ([2]; 30 min): 5.91 % Injected dose
SMILES: Nc1ccc(O)c(NC(=O)CN(CCN(CC(=O)O)CC(=O)Nc2cc(N)ccc2O)CC(=O)O)c1 [Compound 5]
